Measurements taken from ChEMBL document CHEMBL5360570, “Discovery of pyrazolo[3,4-b]pyridine derivatives as novel and potent Mps1 inhibitors for the treatment of cancer” (Eur J Med Chem, 2023).

How the values were obtained:
[1] = molecular target: Calcium/calmodulin-dependent protein kinase kinase 2 (Homo sapiens) (UniProt Q96RR4); experiment: Inhibition of CAMKK2 (unknown origin) assessed as residual activity at 1 uM relative to control
[2] = molecular target: Epithelial discoidin domain-containing receptor 1 (Homo sapiens) (UniProt Q08345); experiment: Inhibition of DDR1 (unknown origin) assessed as residual activity at 1 uM relative to control
Sequence of Epithelial discoidin domain-containing receptor 1 (Homo sapiens) (Q08345 whole entry, the tested form may be a part): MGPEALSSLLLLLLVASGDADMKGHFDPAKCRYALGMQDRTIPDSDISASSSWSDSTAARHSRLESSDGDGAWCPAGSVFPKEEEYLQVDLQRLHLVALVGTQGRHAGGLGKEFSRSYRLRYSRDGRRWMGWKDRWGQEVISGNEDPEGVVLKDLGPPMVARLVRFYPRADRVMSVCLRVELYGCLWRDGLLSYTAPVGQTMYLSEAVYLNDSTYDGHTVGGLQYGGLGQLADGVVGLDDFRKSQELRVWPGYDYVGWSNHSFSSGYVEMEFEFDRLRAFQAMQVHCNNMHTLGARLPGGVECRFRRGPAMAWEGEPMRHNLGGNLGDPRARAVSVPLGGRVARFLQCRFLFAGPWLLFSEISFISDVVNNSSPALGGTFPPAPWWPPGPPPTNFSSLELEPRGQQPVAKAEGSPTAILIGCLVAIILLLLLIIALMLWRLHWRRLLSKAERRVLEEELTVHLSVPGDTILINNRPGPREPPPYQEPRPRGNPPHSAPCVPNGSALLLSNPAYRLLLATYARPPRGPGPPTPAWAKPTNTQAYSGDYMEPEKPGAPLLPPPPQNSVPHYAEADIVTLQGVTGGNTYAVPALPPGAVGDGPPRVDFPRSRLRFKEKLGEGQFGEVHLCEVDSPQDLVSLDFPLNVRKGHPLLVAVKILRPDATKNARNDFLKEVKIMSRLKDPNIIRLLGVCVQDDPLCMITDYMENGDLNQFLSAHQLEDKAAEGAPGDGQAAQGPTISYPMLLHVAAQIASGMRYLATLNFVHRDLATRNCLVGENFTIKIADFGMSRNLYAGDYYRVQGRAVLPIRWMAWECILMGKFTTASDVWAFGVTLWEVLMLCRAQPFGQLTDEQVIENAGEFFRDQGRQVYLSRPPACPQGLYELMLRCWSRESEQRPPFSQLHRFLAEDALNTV

[3] = molecular target: Focal adhesion kinase 1 (Homo sapiens) (UniProt Q05397); experiment: Inhibition of PTK2 (unknown origin) assessed as residual activity at 1 uM relative to control
[4] = molecular target: LIM domain kinase 1 (Homo sapiens) (UniProt P53667); experiment: Inhibition of LIMK1 (unknown origin) assessed as residual activity at 1 uM relative to control
Sequence of LIM domain kinase 1 (Homo sapiens) (P53667 whole entry, looked up, the tested form may be a part): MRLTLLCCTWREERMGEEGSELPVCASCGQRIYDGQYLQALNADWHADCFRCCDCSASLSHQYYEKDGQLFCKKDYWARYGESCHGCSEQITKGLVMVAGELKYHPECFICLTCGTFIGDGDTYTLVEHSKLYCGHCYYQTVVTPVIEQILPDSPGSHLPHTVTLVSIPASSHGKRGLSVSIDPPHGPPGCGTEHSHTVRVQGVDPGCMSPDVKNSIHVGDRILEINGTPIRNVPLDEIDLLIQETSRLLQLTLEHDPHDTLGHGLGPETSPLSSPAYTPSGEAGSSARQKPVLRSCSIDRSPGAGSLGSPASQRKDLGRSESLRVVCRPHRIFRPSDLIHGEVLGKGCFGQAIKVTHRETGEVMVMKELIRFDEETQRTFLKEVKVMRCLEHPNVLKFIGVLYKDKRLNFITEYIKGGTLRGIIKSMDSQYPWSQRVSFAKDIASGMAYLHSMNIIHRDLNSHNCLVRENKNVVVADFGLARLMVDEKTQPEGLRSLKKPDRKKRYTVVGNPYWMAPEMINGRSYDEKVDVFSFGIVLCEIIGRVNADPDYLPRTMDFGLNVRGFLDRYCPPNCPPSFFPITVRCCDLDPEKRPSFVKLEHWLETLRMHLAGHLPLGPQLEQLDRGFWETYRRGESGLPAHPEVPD

[5] = molecular target: MAP/microtubule affinity-regulating kinase 4 (Homo sapiens) (UniProt Q96L34); experiment: Inhibition of MARK4 (unknown origin) assessed as residual activity at 1 uM relative to control
Sequence of MAP/microtubule affinity-regulating kinase 4 (Homo sapiens) (Q96L34 whole entry): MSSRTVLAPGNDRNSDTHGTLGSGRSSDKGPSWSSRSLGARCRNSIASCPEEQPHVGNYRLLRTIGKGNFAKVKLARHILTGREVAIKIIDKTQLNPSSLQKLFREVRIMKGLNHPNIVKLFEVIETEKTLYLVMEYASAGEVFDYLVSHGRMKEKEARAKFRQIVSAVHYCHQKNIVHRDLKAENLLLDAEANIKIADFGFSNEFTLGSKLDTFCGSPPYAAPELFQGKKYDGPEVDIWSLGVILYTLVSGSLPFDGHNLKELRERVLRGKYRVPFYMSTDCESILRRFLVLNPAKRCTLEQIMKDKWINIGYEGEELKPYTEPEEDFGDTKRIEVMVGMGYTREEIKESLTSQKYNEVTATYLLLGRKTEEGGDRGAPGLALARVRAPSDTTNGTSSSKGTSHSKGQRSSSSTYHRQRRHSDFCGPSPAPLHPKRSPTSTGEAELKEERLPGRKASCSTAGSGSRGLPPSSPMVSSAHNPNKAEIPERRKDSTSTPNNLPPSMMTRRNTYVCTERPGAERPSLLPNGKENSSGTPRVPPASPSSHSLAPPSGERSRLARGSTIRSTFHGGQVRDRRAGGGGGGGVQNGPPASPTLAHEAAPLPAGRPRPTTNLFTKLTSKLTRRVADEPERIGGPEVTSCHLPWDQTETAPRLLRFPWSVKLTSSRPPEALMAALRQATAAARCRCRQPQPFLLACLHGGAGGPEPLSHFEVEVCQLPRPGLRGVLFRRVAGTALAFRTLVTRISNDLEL

[6] = molecular target: Non-receptor tyrosine-protein kinase TNK1 (Homo sapiens) (UniProt Q13470); experiment: Inhibition of TNK1 (unknown origin) assessed as residual activity at 1 uM relative to control
[7] = system: ALK tyrosine kinase receptor (Homo sapiens), Q9UM73 [C1156Y]; experiment: Inhibition of ALK C1156Y mutant (unknown origin) assessed as residual activity at 1 uM relative to control
Sequence of ALK tyrosine kinase receptor (Homo sapiens), Q9UM73 [C1156Y] (Q9UM73 whole entry C1156Y, looked up): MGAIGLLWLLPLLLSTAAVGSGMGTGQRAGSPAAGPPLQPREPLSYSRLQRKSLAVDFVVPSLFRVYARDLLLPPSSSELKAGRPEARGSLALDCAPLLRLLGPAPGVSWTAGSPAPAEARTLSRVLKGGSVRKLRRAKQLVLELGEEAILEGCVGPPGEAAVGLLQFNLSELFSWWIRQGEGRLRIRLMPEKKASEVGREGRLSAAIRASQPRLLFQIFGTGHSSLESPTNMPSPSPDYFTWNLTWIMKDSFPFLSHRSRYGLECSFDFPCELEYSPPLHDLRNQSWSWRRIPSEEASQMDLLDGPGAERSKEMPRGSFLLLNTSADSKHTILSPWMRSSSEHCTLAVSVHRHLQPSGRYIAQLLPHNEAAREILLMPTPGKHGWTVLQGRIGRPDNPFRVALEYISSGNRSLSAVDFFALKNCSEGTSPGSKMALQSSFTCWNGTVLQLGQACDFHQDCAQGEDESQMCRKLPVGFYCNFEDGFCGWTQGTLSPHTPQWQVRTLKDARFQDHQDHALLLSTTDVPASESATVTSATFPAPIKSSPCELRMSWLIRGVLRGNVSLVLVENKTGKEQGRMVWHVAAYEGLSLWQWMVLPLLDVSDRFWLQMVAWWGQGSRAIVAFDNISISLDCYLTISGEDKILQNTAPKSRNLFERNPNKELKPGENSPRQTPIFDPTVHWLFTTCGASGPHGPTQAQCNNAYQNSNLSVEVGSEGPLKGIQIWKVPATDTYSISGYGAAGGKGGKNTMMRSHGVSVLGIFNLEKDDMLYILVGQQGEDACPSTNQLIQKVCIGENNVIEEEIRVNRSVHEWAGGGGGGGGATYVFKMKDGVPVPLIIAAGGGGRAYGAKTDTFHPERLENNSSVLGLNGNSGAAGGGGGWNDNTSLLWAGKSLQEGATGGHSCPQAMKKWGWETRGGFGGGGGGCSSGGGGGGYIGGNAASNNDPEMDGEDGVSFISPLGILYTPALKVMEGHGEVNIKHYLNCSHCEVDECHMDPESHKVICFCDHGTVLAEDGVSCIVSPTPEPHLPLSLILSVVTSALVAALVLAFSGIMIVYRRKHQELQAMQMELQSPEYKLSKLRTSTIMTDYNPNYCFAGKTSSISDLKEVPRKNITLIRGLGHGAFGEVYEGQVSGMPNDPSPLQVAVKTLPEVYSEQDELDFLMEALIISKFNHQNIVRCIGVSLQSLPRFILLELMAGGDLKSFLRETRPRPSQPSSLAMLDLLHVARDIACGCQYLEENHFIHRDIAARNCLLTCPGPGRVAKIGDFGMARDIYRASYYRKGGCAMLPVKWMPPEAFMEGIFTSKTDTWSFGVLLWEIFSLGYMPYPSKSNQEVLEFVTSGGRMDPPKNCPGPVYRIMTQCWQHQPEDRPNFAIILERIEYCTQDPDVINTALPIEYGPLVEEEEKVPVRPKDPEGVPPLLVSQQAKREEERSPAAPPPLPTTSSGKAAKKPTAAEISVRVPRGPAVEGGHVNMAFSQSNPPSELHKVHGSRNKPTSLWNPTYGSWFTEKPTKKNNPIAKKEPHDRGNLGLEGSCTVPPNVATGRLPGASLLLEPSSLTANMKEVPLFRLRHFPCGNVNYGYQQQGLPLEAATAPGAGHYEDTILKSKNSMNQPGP

[8] = system: ALK tyrosine kinase receptor (Homo sapiens), Q9UM73 [F1174L]; experiment: Inhibition of ALK F1174L mutant (unknown origin) assessed as residual activity at 1 uM relative to control
Sequence of ALK tyrosine kinase receptor (Homo sapiens), Q9UM73 [F1174L] (Q9UM73 whole entry F1174L): as the sequence (Q9UM73 whole entry C1156Y, looked up) above, with Y1156C, F1174L counted along it

[9] = molecular target: T1, ALK-TFG (Homo sapiens) (UniProt Q9UM73+Q92734); experiment: Inhibition of ALK-TFG (unknown origin) assessed as residual activity at 1 uM relative to control; assay type: protein assay
T1 sequence (Q92734 whole entry, looked up): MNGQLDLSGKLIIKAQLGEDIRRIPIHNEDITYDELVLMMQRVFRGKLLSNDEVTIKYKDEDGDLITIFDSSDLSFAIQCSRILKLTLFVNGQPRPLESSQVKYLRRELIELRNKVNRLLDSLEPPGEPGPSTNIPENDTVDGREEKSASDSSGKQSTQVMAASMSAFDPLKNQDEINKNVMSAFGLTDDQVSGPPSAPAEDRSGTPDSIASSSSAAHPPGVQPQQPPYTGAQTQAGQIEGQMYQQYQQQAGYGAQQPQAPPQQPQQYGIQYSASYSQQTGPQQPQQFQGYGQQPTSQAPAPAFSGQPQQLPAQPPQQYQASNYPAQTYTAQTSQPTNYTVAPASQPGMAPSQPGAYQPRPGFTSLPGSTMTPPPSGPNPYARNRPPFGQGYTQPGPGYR
T1 sequence (Q9UM73 whole entry, looked up): as the sequence (Q9UM73 whole entry C1156Y, looked up) above, with Y1156C counted along it

[10] = molecular target: T1, ALK-TFG (Homo sapiens); experiment: Inhibition of ALK-TFG (Tex4Aex20) (unknown origin) assessed as residual activity at 1 uM relative to control; assay type: protein assay
[11] = system: MCF7; experiment: Antiproliferative activity against human MCF7 cells assessed inhibition of cell growth incubated for 72 hrs by CCK-8 assay; assay type: functional, cell-based; conditions: MCF7, 72 h
[12] = Metabolic stability in human liver microsome assessed as parent compound remaining preincubated for 10 mins followed by NADPH addition and measured immediately by LC-MS/MS analysis; assay type: ADME; conditions: liver microsomes, read-out: Stability
[13] = Metabolic stability in human liver microsome assessed as parent compound remaining preincubated for 10 mins followed by NADPH addition and measured at 5 mins by LC-MS/MS analysis; assay type: ADME; conditions: liver microsomes, time 15 min, read-out: Stability
[14] = Metabolic stability in human liver microsome assessed as parent compound remaining preincubated for 10 mins followed by NADPH addition and measured at 60 mins by LC-MS/MS analysis; assay type: ADME; conditions: liver microsomes, time 70 min, read-out: Stability
[15] = C0 in Sprague-Dawley rat at 2 mg/kg, iv measured upto 24 hrs by LC-MS/MS analysis; assay type: ADME, organism-based; conditions: in vivo
[16] = Half life in Sprague-Dawley rat at 10 mg/kg, po measured upto 24 hrs by LC-MS/MS analysis; assay type: ADME, organism-based; conditions: in vivo
[17] = AUC (0 to t) in Sprague-Dawley rat at 2 mg/kg, iv measured upto 24 hrs by LC-MS/MS analysis; assay type: ADME, organism-based; set-up: dose 2 mg/kg, time < 24 hrs, route iv; conditions: in vivo
[18] = AUC (0 to infinity) in Sprague-Dawley rat at 10 mg/kg, po measured upto 24 hrs by LC-MS/MS analysis; assay type: ADME, organism-based; set-up: dose 10 mg/kg, time < 24 hrs, route po; conditions: in vivo
[19] = MRT (0 to t) in Sprague-Dawley rat at 2 mg/kg, iv measured upto 24 hrs by LC-MS/MS analysis; assay type: ADME, organism-based; conditions: in vivo
[20] = system: MDA-MB-468; experiment: Antitumor activity against human MDA-MB-468 cells xenografted in BALB/c nude mouse assessed as tumor growth inhibition at 60 mg/kg, po administered once daily for 21 days; assay type: functional; conditions: MDA-MB-468, 504 h, time 21 day, read-out: TGI

Sequence of Calcium/calmodulin-dependent protein kinase kinase 2 (Homo sapiens) (Q96RR4 2-588 limits assumed): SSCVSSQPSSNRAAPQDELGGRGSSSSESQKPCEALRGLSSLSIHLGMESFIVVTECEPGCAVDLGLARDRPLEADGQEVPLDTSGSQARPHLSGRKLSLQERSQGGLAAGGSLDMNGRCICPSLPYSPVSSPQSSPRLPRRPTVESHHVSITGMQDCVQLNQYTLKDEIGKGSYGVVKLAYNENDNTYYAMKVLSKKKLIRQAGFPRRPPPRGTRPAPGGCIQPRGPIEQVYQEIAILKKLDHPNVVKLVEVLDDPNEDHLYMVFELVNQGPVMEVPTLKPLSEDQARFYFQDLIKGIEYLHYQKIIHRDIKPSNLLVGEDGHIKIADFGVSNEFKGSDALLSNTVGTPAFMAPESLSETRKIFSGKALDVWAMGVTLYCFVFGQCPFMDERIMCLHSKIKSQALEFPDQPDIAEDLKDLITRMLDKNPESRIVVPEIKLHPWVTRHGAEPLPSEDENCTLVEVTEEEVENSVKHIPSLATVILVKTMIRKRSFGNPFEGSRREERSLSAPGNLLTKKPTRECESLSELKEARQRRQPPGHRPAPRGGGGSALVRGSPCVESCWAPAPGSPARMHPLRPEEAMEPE

Activity [1]: < 10%
Activity [2]: < 10%
Activity [3]: < 10%
Activity [4]: < 10%
Activity [5]: < 10%
Activity [6]: < 10%
Activity [7]: < 10%
Activity [8]: < 10%
Activity [9]: < 10%
Activity [10]: < 10%
IC50 [11]: > 10 µM
remaining at 0 min [12]: 100%
remaining at 5 min [13]: 82.7%
remaining at 1 h [14]: 29.4%
C0 at 24 h [15]: 5240 ng/mL
half-life [16]: 63 min
AUC(0-t) at 24 h [17]: 1050 ng·h/mL
AUC(0-inf) [18]: 208 ng·h/mL
MRT last at 24 h [19]: 20.4 min
Structure (SMILES): CCc1cccc(CC)c1N1CCn2cc(-c3nc(Nc4ccc(N5CCN(C(C)=O)CC5)cc4OC)nc4[nH]ncc34)cc2C1=O
inhibition in vivo at 60 mg/kg [20]: 34%
